Common to all, as to type: biochemical
In one test the target is JAK-2 (Homo sapiens, UniProt O60674). Description: JAK2 inhibition assay. Particulars: 12 μM ATP, 15 μM poly(Glu)4Tyr.
The target in another test is T1, FLT-3 (Homo sapiens, UniProt P36888).
T1 sequence (P36888 27-993): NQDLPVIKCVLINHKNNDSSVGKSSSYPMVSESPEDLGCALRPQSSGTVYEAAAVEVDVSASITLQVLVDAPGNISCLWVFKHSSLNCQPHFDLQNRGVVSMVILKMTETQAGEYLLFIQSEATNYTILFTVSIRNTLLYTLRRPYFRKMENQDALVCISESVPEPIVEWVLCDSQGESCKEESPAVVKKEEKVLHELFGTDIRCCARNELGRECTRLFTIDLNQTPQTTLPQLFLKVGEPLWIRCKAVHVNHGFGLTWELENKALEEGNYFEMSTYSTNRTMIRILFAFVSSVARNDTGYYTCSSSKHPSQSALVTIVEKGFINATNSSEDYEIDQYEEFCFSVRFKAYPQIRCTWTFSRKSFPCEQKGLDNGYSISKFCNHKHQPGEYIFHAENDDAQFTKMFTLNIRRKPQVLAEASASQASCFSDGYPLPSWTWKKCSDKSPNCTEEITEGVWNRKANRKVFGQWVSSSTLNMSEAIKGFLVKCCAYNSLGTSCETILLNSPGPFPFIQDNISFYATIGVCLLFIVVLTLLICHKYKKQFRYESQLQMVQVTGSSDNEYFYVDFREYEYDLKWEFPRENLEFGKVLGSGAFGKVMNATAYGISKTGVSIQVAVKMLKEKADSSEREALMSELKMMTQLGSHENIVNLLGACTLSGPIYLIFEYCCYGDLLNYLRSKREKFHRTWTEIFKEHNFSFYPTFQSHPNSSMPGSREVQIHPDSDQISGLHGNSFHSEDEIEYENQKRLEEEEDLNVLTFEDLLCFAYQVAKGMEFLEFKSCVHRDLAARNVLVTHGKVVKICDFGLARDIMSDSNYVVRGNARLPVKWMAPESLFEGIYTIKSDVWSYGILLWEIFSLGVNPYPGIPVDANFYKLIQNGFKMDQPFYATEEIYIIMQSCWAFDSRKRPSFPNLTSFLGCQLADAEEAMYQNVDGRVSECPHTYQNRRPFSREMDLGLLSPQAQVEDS
Description: FLT-3 inhibition assay, radiometric filter-binding. The protocol:
This assay monitors the 33P incorporation into a substrate poly(Glu, Tyr) 4:1 (pE4Y). […] Final substrate concentrations in the assay were 90 μM ATP and 0.5 mg/ml pE4Y (both from Sigma Chemicals, St Louis, Mo.). […] Reactions were carried out at room temperature.
Two assay solutions were prepared. Solution 1 contains 100 mM HEPES (pH 7.5), 10 mM MgCl2, 25 mM NaCl, 1 mg/ml pE4Y and […] (containing 0.3 mCi of [γ-33^P]ATP for each reaction). Solution 2 contains 100 mM HEPES (pH 7.5), 10 mM MgCl2, 25 mM NaCl, 2 mM DTT, 0.02% BSA and 3 nM FLT-3. The assay was run on a 96 well plate by mixing 50 μl each of Solution 1 and […] of the compounds of the present invention. The reaction was initiated with Solution 2. […] All of the reaction volume was then transferred to a filter plate and washed with 5% TCA by a Harvester 9600 from TOMTEC (Hamden, Conn.). The amount of ^33P incorporation into pE4y was analyzed by a Packard Top Count Microplate Scintillation Counter (Meriden, Conn.). The data was fitted using Prism software to get an IC50 or Ki.

The target in a further test is T2, Aurora-2 (Aurora A) (Homo sapiens, UniProt O14965).
T2 sequence (O14965 1-403): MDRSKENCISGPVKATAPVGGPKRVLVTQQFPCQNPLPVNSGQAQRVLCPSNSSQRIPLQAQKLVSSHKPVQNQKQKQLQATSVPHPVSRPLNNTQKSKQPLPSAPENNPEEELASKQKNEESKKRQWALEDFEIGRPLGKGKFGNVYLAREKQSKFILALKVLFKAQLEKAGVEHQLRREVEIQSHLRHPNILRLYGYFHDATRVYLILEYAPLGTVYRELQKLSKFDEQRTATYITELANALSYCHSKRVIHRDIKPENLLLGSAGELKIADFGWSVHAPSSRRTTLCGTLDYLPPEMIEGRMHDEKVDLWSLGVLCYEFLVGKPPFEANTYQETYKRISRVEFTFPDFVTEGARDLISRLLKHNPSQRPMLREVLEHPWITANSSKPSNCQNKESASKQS
Kind of test: Aurora-2 (Aurora A) inhibition assay, coupled enzyme. On the procedure:
Assays were carried out in a mixture of 100 mM Hepes (pH7.5), 10 mM MgCl2, 1 mM DTT, 25 mM NaCl, 2.5 mM phosphoenolpyruvate, 300 μM NADH, 30 μg/ml pyruvate kinase and 10 μg/ml lactate dehydrogenase. […] Assays were carried out at 30° C. and in the presence of 40 nM Aurora-2.
An assay stock buffer solution was prepared containing all of the reagents listed above, with the exception of Aurora-2 and the test compound of interest. […] The plate was preincubated for 10 minutes at 30° C. and the reaction initiated by addition of 10 μl of Aurora-2. Initial reaction rates were determined with a Molecular Devices SpectraMax Plus plate reader over a 10 minute time course. IC50 and Ki data were calculated from non-linear regression analysis using the Prism software package (GraphPad Prism version 3.0cx for Macintosh, GraphPad Software, San Diego Calif., USA).

Setting [1] is: 90 μM ATP, 0.5 mg/ml pE4Y, room temperature, read-out: FLT-3 Ki.
The mark [2] stands for this setting: 400 μM ATP, 570 μM Kemptide, 30° C., 40 nM Aurora-2, read-out: Aurora A Ki.

pKi: −log10 of the molar value. Read-outs that look alike come from different tables or passages of the source.

Sequence of JAK-2 (O60674 whole entry, species assumed): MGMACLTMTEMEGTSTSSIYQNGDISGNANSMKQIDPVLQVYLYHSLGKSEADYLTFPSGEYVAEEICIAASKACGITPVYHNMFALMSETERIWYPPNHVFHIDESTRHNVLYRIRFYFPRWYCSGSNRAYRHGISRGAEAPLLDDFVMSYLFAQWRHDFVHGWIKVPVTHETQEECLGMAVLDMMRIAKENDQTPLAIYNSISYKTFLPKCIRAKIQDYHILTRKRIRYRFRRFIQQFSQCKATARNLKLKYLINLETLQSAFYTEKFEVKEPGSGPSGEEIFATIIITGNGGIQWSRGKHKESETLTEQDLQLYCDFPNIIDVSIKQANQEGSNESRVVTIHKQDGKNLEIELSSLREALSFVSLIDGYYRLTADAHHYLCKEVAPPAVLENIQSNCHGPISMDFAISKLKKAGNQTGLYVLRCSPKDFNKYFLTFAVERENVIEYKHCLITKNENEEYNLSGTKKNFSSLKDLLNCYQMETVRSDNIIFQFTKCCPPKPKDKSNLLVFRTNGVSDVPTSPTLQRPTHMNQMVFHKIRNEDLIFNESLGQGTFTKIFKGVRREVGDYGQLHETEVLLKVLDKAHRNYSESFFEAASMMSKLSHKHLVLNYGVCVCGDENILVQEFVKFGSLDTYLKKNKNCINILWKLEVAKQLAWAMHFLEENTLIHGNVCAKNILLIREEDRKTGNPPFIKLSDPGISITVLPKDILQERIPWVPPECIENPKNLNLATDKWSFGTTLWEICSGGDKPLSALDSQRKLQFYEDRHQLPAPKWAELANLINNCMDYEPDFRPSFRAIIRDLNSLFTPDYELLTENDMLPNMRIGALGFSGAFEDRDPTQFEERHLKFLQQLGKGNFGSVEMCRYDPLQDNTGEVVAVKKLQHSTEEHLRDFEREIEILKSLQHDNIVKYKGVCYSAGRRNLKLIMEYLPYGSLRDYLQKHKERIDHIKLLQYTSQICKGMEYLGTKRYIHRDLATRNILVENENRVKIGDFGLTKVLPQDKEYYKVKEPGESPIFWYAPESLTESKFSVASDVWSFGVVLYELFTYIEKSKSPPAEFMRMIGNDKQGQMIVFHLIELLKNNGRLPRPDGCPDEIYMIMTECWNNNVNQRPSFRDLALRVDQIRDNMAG

`Cc1cc(Nc2cc(N3CCC3)nc(Sc3ccc(NC(=O)c4ccccc4Cl)cc3)n2)[nH]n1` [Compound I-1, N-{4-[4-Azetidin-1-yl-6-(5-methyl-2H-pyrazol-3-ylamino)-pyrimidin-2-ylsulfanyl]-phenyl}-2-chloro-benzamide]: the results for the pKi on JAK-2, at FLT-3 (setting [1]) and on Aurora-2 (Aurora A) (setting [2]) were 6.42, 7.00 and 9.00, respectively.

`Cc1cc(Nc2cc(N3CCC3)nc(Sc3ccc(NC(=O)c4c(F)cccc4F)cc3)n2)[nH]n1` [Compound I-2, N-{4-[4-Azetidin-1-yl-6-(5-methyl-2H-pyrazol-3-ylamino)-pyrimidin-2-ylsulfanyl]-phenyl}-2,6-Difluoro-benzamide]: the pKi at JAK-2 is 7.17; at FLT-3 (setting [1]) it was 6.74; on Aurora-2 (Aurora A) (setting [2]), 8.72.

As for `Cc1cc(Nc2cc(N3CCC3)nc(Sc3ccc(NC(=O)c4ccccc4F)cc3)n2)[nH]n1` [Compound I-3], the pKi is 7.21 on JAK-2, 6.66 at FLT-3 (setting [1]) and 8.66 on Aurora-2 (Aurora A) (setting [2]).

As for `Cc1cccc(C(=O)Nc2ccc(Sc3nc(Nc4cc(C)[nH]n4)cc(N4CCC4)n3)cc2)c1` [Compound I-4], the pKi on JAK-2 was 7.09; on FLT-3 it was 6.48; on Aurora-2 (Aurora A) it was 8.60.

Take `Cc1cc(Nc2cc(N3CCC3)nc(Sc3ccc(NC(=O)c4ccccc4C)cc3)n2)[nH]n1` [Compound I-5]: the pKi on JAK-2 is 6.72; at FLT-3 (setting [1]), 7.15; at Aurora-2 (Aurora A) (setting [2]), 9.06.

With `COc1ccccc1C(=O)Nc1ccc(Sc2nc(Nc3cc(C)[nH]n3)cc(N3CCC3)n2)cc1` [Compound I-6], the pKi was 5.96 at JAK-2, 6.92 at FLT-3 and 8.52 on Aurora-2 (Aurora A).

Turning to `Cc1cc(Nc2cc(N3CCC3)nc(Sc3ccc(NC(=O)c4ccccc4OC(F)(F)F)cc3)n2)[nH]n1` [Compound I-8], the pKi on JAK-2 is 5.77; at FLT-3 it was 6.77; at Aurora-2 (Aurora A), 9.17.

`Cc1cc(Nc2cc(N3CCC3)nc(Sc3ccc(NC(=O)c4c(Cl)cccc4Cl)cc3)n2)n[nH]1` [Compound I-11]: the pKi is 6.48 at JAK-2, 6.96 on FLT-3 and 9.15 on Aurora-2 (Aurora A).

Regarding `Cc1cc(Nc2cc(N3CCC3)nc(Sc3ccc(NC(=O)c4cccc(Cl)c4)cc3)n2)n[nH]1` [Compound I-12], the pKi at JAK-2 is 7.34; at FLT-3, 6.27; on Aurora-2 (Aurora A), 8.85.

In the case of `Cc1cc(Nc2cc(N3CCC3)nc(Sc3ccc(NC(=O)c4cccc(C(F)(F)F)c4F)cc3)n2)n[nH]1` [Compound I-13], the values for the pKi at JAK-2, on FLT-3 and at Aurora-2 (Aurora A) were 6.89, 6.46 and 9.46, respectively.

`Cc1cc(Nc2cc(N3CCC3)nc(Sc3ccc(NC(=O)c4ccccc4C(F)(F)F)cc3)n2)[nH]n1` [Compound I-14]: the pKi on JAK-2 was 6.14; on FLT-3 (setting [1]), 6.77; at Aurora-2 (Aurora A) (setting [2]), 9.42.

For `Cc1cc(Nc2cc(N3CCC3)nc(Sc3ccc(NC(=O)c4cccc(Cl)c4F)cc3)n2)n[nH]1` [Compound I-15], the pKi is 7.34 at JAK-2, 6.80 on FLT-3 and 9.12 at Aurora-2 (Aurora A).

Take `O=C(Nc1ccc(Sc2nc(Nc3cc(C4CC4)[nH]n3)cc(N3CCC3)n2)cc1)c1ccccc1Cl` [Compound I-17]: the pKi at JAK-2 is 6.39; at FLT-3, 7.00; at Aurora-2 (Aurora A) (setting [2]) it was 9.19.

`Cc1cc(Nc2cc(N3CCC3)nc(Sc3ccc(NC(=O)c4ccccc4C(F)F)cc3)n2)[nH]n1` [Compound I-19]: the values for the negative-log Ki (pKi) at JAK-2, at FLT-3 (setting [1]) and on Aurora-2 (Aurora A) (setting [2]) were 6.39, 6.80 and 8.92, respectively.

Regarding `Cc1cc(Nc2cc(N3CCC3)nc(Sc3ccc(NC(=O)c4cccc(C)c4Cl)cc3)n2)n[nH]1` [Compound I-20], the pKi at JAK-2 is 6.54; at FLT-3, 6.62; at Aurora-2 (Aurora A), 9.11.

Take `Cc1cc(Nc2cc(N3CCC3)nc(Sc3ccc(NC(=O)c4cc(Cl)ccc4Cl)cc3)n2)n[nH]1` [Compound I-21]: the pKi was 6.22 at JAK-2, 6.26 at FLT-3 and 9.11 at Aurora-2 (Aurora A) (setting [2]).

Regarding `CCc1cccc(C(=O)Nc2ccc(Sc3nc(Nc4cc(C)[nH]n4)cc(N4CCC4)n3)cc2)c1Cl` [Compound I-22], the pKi on JAK-2 was 6.30; on FLT-3, 6.72; on Aurora-2 (Aurora A), over 9.46.

Source of the values: patent publication US8557833B2, “Aminopyrimidines useful as kinase inhibitors” (priority 2005, dated 2013).
